Measurements taken from patent US12029682B2, “Spray ejector mechanisms and devices providing charge isolation and controllable droplet charge, and low dosage volume ophthalmic administration” (EYENOVIA, INC., priority 2012, dated 2024).

What was measured:
glaucomatous beagles [1] = test: Pupil diameter (PD), Jameson Caliper, in glaucomatous beagles; format: in vivo, beagle dog; conditions: for PD: spray ejector device, one dog
Description: (§1) One glaucomatous beagle dog (female, aged 3 years) from the University of Florida MacKay Colony of Glaucomatous Beagles was chosen for this study. The animal was rested a minimum of one week before starting the study. Prior to the commencement of the study, the animal was assigned one eye to receive 1.5 μl of 0.005% latanoprost and the contralateral eye to remain untreated as a control. The basic measurement protocol was followed at all times and performed by the same operator. PD was measured via Jameson Caliper (mm horizontally). IOP was measured using a TonoVet instrument with clean probe (iCare). IOP and PD were measured at time 0, 1, 2, 4, 7 and 18 hours daily for two days. Immediately after the time 0 measurement, the animal received 1.5 μl of 0.005% latanoprost in its assigned eye with a spray device. The contralateral eye was left untreated. The spray device was checked for accuracy before and after every use, and required a 10% delivered dose accuracy in pretreatment. Standard measurements continued throughout each day at time 1, 2, 4, 7 and 18 hours. Possible endpoints included, but were not limited to, excessive ocular irritation, ocular damage, and other illness or injury. No statistical crossover was utilized for this study.
as §1, with “study.” for “study. The animal was rested a minimum of one week before starting the study.”, “receive 3.0” for “receive 1.5”, “0 measurements,” for “0 measurement,”, “animal was administered 3.0” for “animal received 1.5”, “eye using” for “eye with”, “spray ejector” for “spray”
All animals were rested for a minimum of one week before starting the trials. IOP and pupil diameter (PD) were measured 5 times (at 0, 1, 2, 4, and 7 hours) daily for four days (study days 1-4) to establish initial baseline levels. The basic measurement protocol was followed at all times and performed by the same operator. PD was measured via Jameson Caliper (mm horizontally). IOP was measured with a TonoVet instrument with clean probe (iCare). After three rest days, one eye was randomly assigned to receive 9 μl of 0.005% latanoprost delivered via a spray ejector device, and the contralateral eye was administered traditional latanoprost from a traditional eyedropper container (26-30 μl).
On study days 5-9, IOP and PD measurements were taken at approximately 0900 h (time 0). Immediately after time 0 measurements, each animal received a once-daily dose of 9 μl of generic 0.005% latanoprost in its assigned eye via the spray ejector device. […]

glaucomatous beagles [2] = tested on: glaucomatous beagles; design: species or system beagle dog; conditions: dog, in vivo
Description: All animals are rested a minimum of one week before starting the trials. Intraocular pressure (IOP), pupil diameter (PD), and heart rate (HR) are measured 6 times (at 0, 0:30, 0:45, 1, 2, 7 hrs) daily for five days, for initial baseline levels (Study days 1-5). The basic measurement protocol is followed and performed by the operator. PD is measured via Jameson Caliper (mm horizontally). IOP is measured with a TonoVet instrument with clean probe (iCare). HR is monitored via palpation of the femoral vessels. After two rest days, one eye is randomly assigned to receive the drug delivered via the ejector device and the contralateral eye is given traditional latanoprost from an eye dropper container.
All animals were rested a minimum of one week before starting the trials. Intraocular pressure (IOP), pupil diameter (PD), and heart rate (HR) were measured daily at time 0, 12, 13, 14, 16, and 19 hours for five days starting at approximately 2100 h to establish initial baseline levels (study days 1-5). […] PD was measured via Jameson Caliper (mm horizontally). IOP was measured using a TonoVet instrument with clean probe (iCare). HR was monitored via palpation of the femoral vessels. […]
Following a 7 day rest period, the eye choice was reversed. […] A veterinary ophthalmologist evaluated each test subject before and after the study for evidence of ocular side effects. […]

changes in HR (glaucomatous beagles [2]) | SMILES | PD (glaucomatous beagles [1]; 1.5 μl of 0.005%, by hour 1 through hour 7) | PD (glaucomatous beagles [1]; 3.0 μl of 0.005%, by hour 1 throughout hour 7) | time to return to normal PD (glaucomatous beagles [1]; one drop of 0.005% by eyedropper) | time at which the iris reached pinpoint status (glaucomatous beagles [1]; traditional treatment, one drop by eyedropper, remained for the seven hours of monitoring) | time at which the iris reached pinpoint status (maximum miosis) (glaucomatous beagles [1]; two 6 μl doses via ejector device, remained for the seven hours of monitoring)
 | CC(C)OC(=O)CCC/C=C\C[C@@H]1[C@@H](CC[C@@H](O)CCc2ccccc2)[C@H](O)C[C@@H]1O [latanoprost] | 0 mm | 0 mm | ≤ 24 h | 1 h | 1 h
no changes in HR | CC(C)OC(=O)CCC/C=C\C[C@@H]1[C@@H](/C=C/[C@@H](O)COc2cccc(C(F)(F)F)c2)[C@H](O)C[C@@H]1O [travoprost] |  |  |  |  | 
